# Measured values as given in US20100143250A1, “COMPOUNDS FOR THE DIAGNOSIS OF APOPTOSIS” (priority 2007, published 2010).
# pIC50, pKd: −log10 of the molar value. Ends that are not written are not given here.
# Columns and labels:
# [1] = Relaxivity measurements (r1, r2) in aqueous solution; assay type: physicochemical
# Protocol: The relaxation times T1 and T2 were determined by standard procedures on a Minispec 120 instrument (Bruker) at 20 MHz (0.47T) and 37° C. The longitudinal relaxation time T1 is measured using an inversion-recovery sequence and the transverse relaxation time T2 is measured using a CPMG technique.
# The relaxation rates R1 (=1/T1) and R2 (=1/T2) were calculated for various concentrations of total metal (ranging from 0.1×10^−3 to 1×10^−3 mol/l) in an aqueous solution at 37° C. The correlation between R1 or R2 as a function of the concentration is linear, and the slope represents the relaxivity r1 (R1/C) or r2 (R2/C) expressed as (1/second)×(1/mmol/l), i.e. (s^−1.mM^−1).
# mouse apoptotic liver = assay: MRI of apoptotic liver in the mouse (anti-Fas antibody induced); assay type: in vivo, Balb/c mice
# Protocol: The targeting effectiveness of the Gd-DTPA-LIKKPF product by MRI was also evaluated on a model of apoptotic liver in the mouse. The apoptosis is induced by means of an i.v. injection (caudal vein) of anti-Fas monoclonal antibody in anesthetized Balb/c mice (Blankenberg et al., 1998, 1999; Rodriguez et al., 1996).
# Before the MRI acquisition, the mice are anesthetized with pentobarbital. The experiments are carried out using a 200 MHz Bruker spectrometer (4.7 T) equipped with a vertical magnet and with a mini-imaging system. […] The signal intensity (SI) is measured in the liver. The SI value is also measured in a tube filled with a 2% aqueous solution of gelatin enriched with 50 μM Gd-DTPA, used as a reference product, in a region outside the image of the mouse which corresponds to the background noise. […]
# For the two models, the SI values are measured in various regions of interest (at the level of the arterial wall of the abdominal aorta or whole liver) using the OSIRIS image analysis software. […] The SI value is measured on all the image slices where the arterial wall and the liver are visible. […] The % ΔSNR is calculated according to the following equation:
# % ΔSNR=[(SIpost/SDnoise)−(SIpre/SDnoise)]/[SIpre/SDnoise]×100 where SDnoise is the standard deviation of the noise measured on a region outside the animal.
# [2] = Annexin V competition assay for peptide LIKKPF on immobilized PS (ELISA plate); assay type: binding; settings: interaction of peptide LIKKPF with PS, FIG. 1
# Protocol: The affinity of the peptide LIKKPF (SEQ ID No 11) is measured on immobilized PS (ELISA plate). […] Incubation at 37° C. is sustained for 1.5 hours. The bound annexin V is detected by adding a solution of streptavidin-HRP, and then a solution of ABTS substrate containing 0.05% of H2O2. The OD405 is measured in order to calculate the IC50 value of the peptide.
# [3] = Interaction of USPIO-LIKKPF with immobilized PS, iron assayed with Prussian blue; assay type: binding; settings: 2 hours at 37° C., read-out: K*d value
# Protocol: The affinity of the USPIO-LIKKPF is measured on immobilized PS (120 μg/ml). After saturation of the nonspecific sites, the USPIO-LIKKPF is incubated at increasing concentrations (122 nM-4 mM with respect to iron) for 2 hours at 37° C. After washing of the wells, the molecules bound to the PS are digested in one volume of 5N HCl. The samples are digested in one volume of 5N HCl, for 48 h at 37° C., and the iron is assayed using Prussian blue (OD630).
# [4] = Annexin V competition assay for the interaction of USPIO-LIKKPF with PS; assay type: binding; settings: FIG. 3
# apoptotic Jurkat cells = assay: In vitro MRI on apoptotic or control Jurkat cells preincubated with USPIO; assay type: cell-based
# Protocol: The in vitro MRI is carried out on apoptotic (or control) cells preincubated with the USPIO-LIKKPF or unfunctionalized USPIO (3 or 4 mM with respect to iron) for 2 hours at 37° C. Jurkat cell apoptosis is induced by a treatment with 2 μM camptothecin for 24 hours. After incubation with the USPIO, the labeled cells are transferred into a 0.2% gelatin solution for analysis by MRI (Bruker Avance-200, 4.7 T, TR/TE=3000/20 ms, 30 echos, matrix=256×256, FOV=4 cm, slice thickness=1 mm) in ELISA plate wells.
# [5] = test system: dopaminergic neurons treated with MPP+; assay: MRI detection in cell culture, healthy cells vs cells treated with MPP+; assay type: cell-based, rat
# Protocol: (§1) MRI studies were carried out on C57BI/6 mice treated with MPTP (or its metabolite MPP+ for cell cultures), a neurotoxin which induces a “parkinsonien” syndrome.
# In cell culture, the death of dopaminergic neurons by apoptosis was verified using rat brains, by immunohistochemistry and detection of caspase 3 enzyme activity. For the MRI detection in cell culture, the healthy cells and cells treated with MPP+ were brought into contact with USPIO-LIKKPF.
# [6] = test system: apoptotic nervous tissues; assay: MRI of mice treated with MPTP (model of Parkinson's disease); assay type: in vivo; settings: 4th, 5th, 6th day of treatment, one and three weeks after
# Protocol: In a model of Parkinson's disease, with the injection of USPIO-LIKKPF product (product of example 1)
# as §1
# The diseased and healthy mice were studied on the 4th, 5th and 6th day of treatment, and one and three weeks after the end of the treatment with MPTP. […] The MRI localization of the diseased regions corresponds to the regions containing dopaminergic neurons (immunohistochemistry: detection of dopaminergic neurons by measuring tyrosine hydroxylase in the central gray nuclei).
compound,measurement,setting,value
"Peptide No. 1-DTPAGd: Bz-NCS-DTPA condensed with peptide Asp-Ala-His-Ser-Phe-SerOH, complexed with gadolinium (DAHSFS; Bz-NCS-DTPA-Gd conjugate; printed: Asp-Ala-His-Ser-Phe-Ser)",Relaxivities measured at 20 MHz (37° C.),[1],6.8 s⁻¹ mM⁻¹
"O=C([O-])CN(CCN(CC(=O)[O-])CC(=O)O)CCN(CC(=O)[O-])CC(=O)O.[Gd+3] [Gd-DTPA, reference compound]",MRI signal enhancement in the healthy mouse,mouse apoptotic liver; healthy mouse,only a partial signal enhancement
annexin V: endogenous protein of 35 kDa with high affinity and specificity for PS,pIC50,[2],8.97
"Peptide No. 3-DTPAGd: Bz-NCS-DTPA condensed with peptide Pro-Gly-Asp-Leu-Ser-Arg-OH, complexed with gadolinium (PGDLSR; Bz-NCS-DTPA-Gd conjugate; printed: Pro-Gly-Asp-Leu-Ser-Arg-)",Relaxivities measured at 20 MHz (37° C.),[1],6.7 s⁻¹ mM⁻¹
Leu-Ile-Lys-Lys-Pro-Phe-OH (LIKKPF-OH),effect of preinjection on the enhancement caused by Gd-DTPA-LIKKPF,"mouse apoptotic liver; peptide preinjected at 100 μmol/kg, apoptotic liver",blocks the enhancement caused by the Gd-DTPA-LIKKPF
"USPIO-LIKKPF: USPIO-PEG-PEPTIDE P contrast product with PEPTIDE P being LIKKPF; product of example 1, PEG size not stated (also: coupled to USPIO nanoparticle via PEG linker, site not given here)",pKd,[3],7.11
same,pIC50,[4],6.38
same,binding to apoptotic cells by MRI (signal intensity vs control cells),"apoptotic Jurkat cells; Jurkat cells, 2 μM camptothecin 24 hours, 3 or 4 mM iron, 2 hours at 37° C.",binds specifically to the apoptotic cells
same,"decrease in MRI signal induced by incubation, vs unfunctionalized USPIO","apoptotic Jurkat cells; apoptotic cells, 3 mM and 4 mM Fe, FIG. 4",greater than that recorded with the unfunctionalized USPIO
same,MRI signal of diseased vs healthy cells,[5],diseased cells show a darker signal than the others
same,uptake of contrast agent (standardized relaxation rate and iron concentration),[5],diseased cells have taken up a larger amount of vectorized contrast agent
same,targeting of diseased regions by MRI,[6],more marked at the 5th day
